The values below come from ChEMBL document CHEMBL1201862, “PubChem BioAssay data set” (2004).

Test systems include DMS-114; NCI-H460; SK-OV-3; SK-MEL-2; CCRF-CEM; SNB-75; SF-539; LXFL 529; NCI-H23; EKVX; DLD-1; UACC-62; SK-MEL-5; ACHN; Malme-3M; RPMI-8226; RXF 393; Hs-578T; MDA-MB-435; PC-3.
What all share (assay): NCI anticancer screen, dose series, 48 h

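The compound was tested at five concentrations on cells cultured in 96-well plates, with a 48-hour exposure period. GI50 is the concentration that inhibits growth by half.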 Calls of active or inactive are those of the source. No stated cut-off is given here; in the data, active = GI50 up to about 1.1 µM and inactive = higher. Where a SMILES comes first, the peptide text is derived from it. [ ]: non-standard residue; d: D form. The star is where a group is joined. ξ: configuration not given here. NMeF = CN[CH](Cc1ccccc1)C(=O)O; ξNMe2Val = CC(C)C(C(=O)*)N(C)C; NMeV = CN[CH](C(=O)O)C(C)C; OtBu = CC(C)(C)O*

As to `COC(=O)C1Cc2c(n(Cc3ccccc3)c3ccccc23)C(CCC(=O)O)N1C(C)C` (stereo not drawn), the GI50 with DMS-114, with NCI-H460, with SK-OV-3, with SK-MEL-2, in the assay with CCRF-CEM and in the assay on SNB-75 was > 100 µM (inactive) each time. For the same compound, the GI50 in the assay with SF-539, in the assay with LXFL 529, in the assay on NCI-H23, in the assay with EKVX, in the assay with DLD-1 and in the assay on UACC-62 was > 100 µM (inactive) throughout. Besides, the GI50 in the assay on SK-MEL-5, in the assay on ACHN and with Malme-3M was > 100 µM (inactive) throughout.
Regarding `COc1cc2cnc3c4ccccc4ccc3c2cc1OC`, the GI50 in the assay with DMS-114, in the assay with NCI-H460, in the assay with RPMI-8226, with SK-OV-3, in the assay on SK-MEL-2 and with CCRF-CEM was > 100 µM (inactive) in each case. In addition, the GI50 in the assay with SNB-75 is > 100 µM (inactive); in the assay on LXFL 529, > 100 µM (inactive); in the assay with NCI-H23 it was > 100 µM (inactive); in the assay on EKVX, 6.73 µM (inactive); in the assay with DLD-1 it was > 100 µM (inactive); with UACC-62 it was > 100 µM (inactive). In addition, the GI50 in the assay with SK-MEL-5, in the assay with ACHN and in the assay on Malme-3M was > 100 µM (inactive) each time.
For the compound `CNC(=O)NCCN1N=C(C)/C(=C\c2ccccc2)CC1=O`, the GI50 in the assay with NCI-H460 is > 100 µM (inactive); with RPMI-8226, > 100 µM (inactive); with SK-OV-3, > 100 µM (inactive); in the assay with SK-MEL-2, > 100 µM (inactive); with CCRF-CEM, > 100 µM (inactive); in the assay on SNB-75, 29 µM (inactive). Further, the GI50 with SF-539, in the assay with LXFL 529, in the assay with NCI-H23, with RXF 393, with DLD-1 and with UACC-62 was > 100 µM (inactive) each time. The GI50 in the assay on SK-MEL-5, in the assay on ACHN and in the assay on Malme-3M was > 100 µM (inactive) each time.
For the compound `NC(=O)N/N=C(\CC1OC(=O)c2ccccc21)c1ccc([N+](=O)[O-])cc1` (stereo not drawn), the GI50 with NCI-H460 was 39.9 µM (inactive); in the assay on RPMI-8226, 31.3 µM (inactive); with SK-MEL-2, 19.4 µM (inactive); with CCRF-CEM it was 31.3 µM (inactive); in the assay with SNB-75, 27.1 µM (inactive); with SF-539, 21.5 µM (inactive). The GI50 in the assay with LXFL 529 is 27.9 µM (inactive); in the assay with RXF 393 it was 14.9 µM (inactive); in the assay with EKVX, 33.8 µM (inactive); in the assay on DLD-1 it was 22.4 µM (inactive); in the assay with UACC-62, 18.4 µM (inactive); in the assay on SK-MEL-5 it was 23.1 µM (inactive). Moreover, the GI50 in the assay with ACHN is 62.1 µM (inactive); in the assay with Malme-3M, 25.3 µM (inactive).
For the compound `O=c1cc(-c2ccccc2)oc2cc(OCCCCCCCCCCOc3ccc4c(=O)cc(-c5ccccc5)oc4c3)ccc12`, the GI50 in the assay on DMS-114 is > 100 µM (inactive); in the assay with RPMI-8226 it was > 100 µM (inactive); with SK-OV-3, > 100 µM (inactive); with SK-MEL-2 it was > 100 µM (inactive); in the assay with CCRF-CEM it was > 100 µM (inactive); in the assay with SNB-75 it was 56.1 µM (inactive). Besides, the GI50 with SF-539, with LXFL 529, in the assay with NCI-H23, with EKVX, with UACC-62 and with SK-MEL-5 was > 100 µM (inactive) in each case. The GI50 with ACHN and in the assay on Malme-3M was > 100 µM (inactive) throughout.
`CC(C)C(C(=O)N(C)C(Cc1ccccc1)C(=O)N(C)C(C(=O)N(C)C(C(=O)N1CCCC1C(=O)OC(C)(C)C)C(C)C)C(C)C)N(C)C` (stereo not drawn) (ξNMe2Val-[NMeF][NMeV][NMeV]P-OtBu; configuration not given here): the GI50 with DMS-114 is 31.7 µM (inactive); with NCI-H460 it was 43.2 µM (inactive); in the assay on RPMI-8226, 36.8 µM (inactive); with CCRF-CEM, 31.6 µM (inactive); with SF-539, 26.1 µM (inactive); in the assay with LXFL 529, 31.8 µM (inactive). The GI50 is 94.6 µM (inactive) in the assay with NCI-H23; 64 µM (inactive) in the assay on EKVX; 51.9 µM (inactive) in the assay with UACC-62; 18 µM (inactive) with SK-MEL-5; 65 µM (inactive) in the assay with ACHN; > 10 µM (inactive) in the assay on Malme-3M.
With `CC(C)N1CCC2(CC1)NNc1ncccc1-n1cccc12`, the GI50 in the assay on DMS-114, with NCI-H460, in the assay on RPMI-8226, in the assay on SK-MEL-2, with CCRF-CEM and in the assay with SNB-75 was > 100 µM (inactive) each time. Besides, the GI50 with SF-539, with NCI-H23, with EKVX, with DLD-1, in the assay with SK-MEL-5 and in the assay on ACHN was > 100 µM (inactive) throughout. In the assay on Malme-3M, the GI50 is > 100 µM (inactive).
On to `O=C1C2[C@@H](C(=O)N1c1ccc(Br)cc1)C13C(=CC2([N+](=O)[O-])[C@@H]2C(=O)N(c4ccc(Br)cc4)C(=O)[C@@H]21)c1ccccc1N3c1ccccc1` (stereo partly drawn), for which the GI50 was > 100 µM (inactive) in the assay on DMS-114; > 100 µM (inactive) with RPMI-8226; > 100 µM (inactive) with SK-MEL-2; 46.7 µM (inactive) in the assay with CCRF-CEM; > 100 µM (inactive) in the assay with SNB-75; > 100 µM (inactive) in the assay with SF-539. Moreover, the GI50 with NCI-H23, with RXF 393, in the assay on EKVX, in the assay with DLD-1, in the assay on ACHN and with Malme-3M was > 100 µM (inactive) each time.
As to `CC[C@H]1CNC(=O)CC1CC(=O)OC` (stereo partly drawn), the GI50 in the assay on DMS-114, in the assay with NCI-H460, in the assay with SK-OV-3, in the assay with SK-MEL-2, in the assay with SNB-75 and in the assay on SF-539 was > 100 µM (inactive) in each case. The GI50 with NCI-H23, in the assay on RXF 393, in the assay on EKVX, in the assay with DLD-1, in the assay with UACC-62 and in the assay on SK-MEL-5 was > 100 µM (inactive) each time. For the same compound, the GI50 in the assay on ACHN and in the assay on Malme-3M was > 100 µM (inactive) each time.
On to `CCOc1cc2c(cc1O)CC[C@@H]1[C@@H]2CC[C@]2(C)C(OS(=O)OC3CC[C@@H]4[C@H]5CCc6cc(O)c(OCC)cc6[C@@H]5CC[C@@]34C)CC[C@@H]12` (stereo partly drawn), for which the GI50 in the assay on NCI-H460 is 0.581 µM (active); with RPMI-8226 it was 1.63 µM (inactive); with SK-OV-3, 1.16 µM (inactive); in the assay on SK-MEL-2, 0.92 µM (active); with CCRF-CEM it was 0.466 µM (active); in the assay with SNB-75, 0.51 µM (active). Besides, the GI50 was 0.48 µM (active) in the assay on SF-539; 3.25 µM (inactive) with Hs-578T; 1.84 µM (inactive) with NCI-H23; 0.0601 µM (active) with MDA-MB-435; 1.29 µM (inactive) in the assay with RXF 393; 3.94 µM (inactive) in the assay on PC-3. Further, the GI50 in the assay on EKVX is 3.21 µM (inactive); in the assay with UACC-62, 1.19 µM (inactive); in the assay with SK-MEL-5, 0.34 µM (active); in the assay on ACHN it was 1.88 µM (inactive); in the assay on Malme-3M, 0.168 µM (active).
Turning to `NCCCSCC(=O)O`, the GI50 in the assay with DMS-114, in the assay with RPMI-8226, in the assay on SK-OV-3, in the assay with SK-MEL-2, in the assay with SNB-75 and with SF-539 was > 100 µM (inactive) each time. The GI50 in the assay on LXFL 529, in the assay on NCI-H23, in the assay on RXF 393, in the assay with EKVX, in the assay with UACC-62 and with SK-MEL-5 was > 100 µM (inactive) each time. The GI50 in the assay on ACHN and in the assay on Malme-3M was > 100 µM (inactive) each time.
`C=C(C)[C@@H](O)[C@H](O)C[C@H](C)C1CC[C@]2(C)C1=CC[C@@H]1[C@@]3(C)CC[C@@H](OC(C)=O)C(C)(C)[C@@H]3C[C@@H](OC3OC(COC(C)=O)C(O)C(O)C3O)[C@]12C` (stereo partly drawn): the GI50 in the assay on NCI-H460 was 2.45 µM (inactive); with RPMI-8226 it was 2.01 µM (inactive); in the assay with SK-OV-3, 3.48 µM (inactive); in the assay with SK-MEL-2, 1.77 µM (inactive); with CCRF-CEM, 2.29 µM (inactive); in the assay with SNB-75, 2.45 µM (inactive). The GI50 with SF-539 was 3.66 µM (inactive); in the assay with Hs-578T, 2.81 µM (inactive); with NCI-H23 it was 4.06 µM (inactive); with MDA-MB-435, 2 µM (inactive); with RXF 393 it was 1.98 µM (inactive); in the assay with PC-3, 2.31 µM (inactive). In addition, the GI50 is 3.03 µM (inactive) with EKVX; 1.9 µM (inactive) in the assay with UACC-62; 2.1 µM (inactive) in the assay on SK-MEL-5; 2.44 µM (inactive) in the assay with ACHN; 2.06 µM (inactive) in the assay on Malme-3M.
With `CCc1cc(Cc2cc(Cl)c(NC(=O)C(=O)C3NC(=O)NC3=O)c(CC)c2)cc(Cl)c1NC(=O)C(=O)C1NC(=O)NC1=O` (stereo not drawn), the GI50 in the assay on DMS-114 was 26.9 µM (inactive); in the assay with NCI-H460, 36.1 µM (inactive); in the assay on RPMI-8226 it was 26.4 µM (inactive); in the assay on SK-OV-3, 33.9 µM (inactive); in the assay on SK-MEL-2 it was > 100 µM (inactive); in the assay with CCRF-CEM, 34.5 µM (inactive). Besides, the GI50 with SNB-75 is 30.9 µM (inactive); in the assay with SF-539, 35.1 µM (inactive); in the assay with LXFL 529, 45.1 µM (inactive); with NCI-H23, 26.6 µM (inactive); in the assay on RXF 393, 22.9 µM (inactive); in the assay on EKVX it was > 100 µM (inactive). Also, the GI50 is 46.7 µM (inactive) in the assay on UACC-62, > 100 µM (inactive) with SK-MEL-5, 94.4 µM (inactive) with ACHN and > 100 µM (inactive) with Malme-3M.
